The text below walks through data of patent US20260137703A1, “2-AMINO-PYRIDO[2,3-D]PYRIMIDIN-7(8H)-ONE AND 7-AMINO-1-PYRIMIDO[4,5-D]PYRIMIDIN-2(1 H)-ONE DERIVATIVES AS EGFR INHIBITORS FOR THE TREATMENT OF CANCER” (Cancer Research Technology Limited, priority 2022, published 2026).

The experiment has as its target CtermHisTag-mEGFR Wild type (Homo sapiens, UniProt P00533). Nature of the experiment: biochemical.

Sequence of CtermHisTag-mEGFR Wild type (P00533 whole entry): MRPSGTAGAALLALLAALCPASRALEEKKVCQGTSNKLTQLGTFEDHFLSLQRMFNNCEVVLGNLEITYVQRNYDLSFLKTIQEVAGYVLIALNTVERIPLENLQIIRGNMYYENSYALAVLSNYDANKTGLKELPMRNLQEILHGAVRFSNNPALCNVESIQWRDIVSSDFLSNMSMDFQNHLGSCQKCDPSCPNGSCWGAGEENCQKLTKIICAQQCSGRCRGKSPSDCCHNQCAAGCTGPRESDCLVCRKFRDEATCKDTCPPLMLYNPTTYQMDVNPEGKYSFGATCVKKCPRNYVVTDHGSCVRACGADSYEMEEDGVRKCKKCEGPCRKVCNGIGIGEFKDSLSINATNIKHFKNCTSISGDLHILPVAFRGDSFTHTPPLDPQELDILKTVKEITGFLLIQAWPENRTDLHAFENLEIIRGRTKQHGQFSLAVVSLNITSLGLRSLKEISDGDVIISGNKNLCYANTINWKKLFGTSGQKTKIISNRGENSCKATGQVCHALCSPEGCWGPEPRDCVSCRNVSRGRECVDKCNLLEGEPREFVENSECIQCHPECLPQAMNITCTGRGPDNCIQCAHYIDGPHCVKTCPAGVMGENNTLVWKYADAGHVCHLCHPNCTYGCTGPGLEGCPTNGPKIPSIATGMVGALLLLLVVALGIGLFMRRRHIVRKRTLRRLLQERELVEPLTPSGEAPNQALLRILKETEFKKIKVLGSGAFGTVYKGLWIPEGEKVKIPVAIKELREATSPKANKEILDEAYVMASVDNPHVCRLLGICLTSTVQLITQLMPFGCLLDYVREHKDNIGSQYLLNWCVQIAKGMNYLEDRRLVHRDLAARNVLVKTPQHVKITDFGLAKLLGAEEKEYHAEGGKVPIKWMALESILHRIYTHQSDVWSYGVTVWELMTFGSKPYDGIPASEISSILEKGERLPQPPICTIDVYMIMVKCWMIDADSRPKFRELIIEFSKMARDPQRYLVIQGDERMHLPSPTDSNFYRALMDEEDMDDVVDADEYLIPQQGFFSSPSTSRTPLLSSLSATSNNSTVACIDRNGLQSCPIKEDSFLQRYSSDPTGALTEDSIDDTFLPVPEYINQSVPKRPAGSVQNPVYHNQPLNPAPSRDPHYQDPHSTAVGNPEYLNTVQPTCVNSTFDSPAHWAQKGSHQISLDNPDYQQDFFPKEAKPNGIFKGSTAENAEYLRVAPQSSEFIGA

As usually defined, the IC50 is the concentration needed to halve the response being measured. For `C#Cc1c(-c2ccccc2Cl)c(=O)n(C)c2nc(Nc3ccc(N(C)CCN(C)C)cc3OC)ncc12` [Example 122, 6-(2-chlorophenyl)-2-[(4-[[2-(dimethylamino)ethyl](methyl)amino]-2-methoxyphenyl)amino]-5-ethynyl-8-methylpyrido[2,3-d]pyrimidin-7-one], the IC50 was below 1 µM. In the case of `C#Cc1c(-c2ccccc2Cl)c(=O)n(C)c2nc(Nc3ccc(N(C)CCN(C)C)c(C)c3)ncc12` [Example 133, 6-(2-chlorophenyl)-2-[(4-{[2-(dimethylamino)ethyl](methyl)amino}-3-methylphenyl)amino]-5-ethynyl-8-methylpyrido[2,3-d]pyrimidin-7-one], the half-inhibitory concentration (IC50) is below 1 µM. Take `C=Cc1c(-c2ccccc2Cl)c(=O)n(C)c2nc(Nc3cccc(CO)c3)ncc12` [Example 169, 6-(2-chlorophenyl)-5-ethenyl-2-{[3-(hydroxymethyl)phenyl]amino}-8-methylpyrido[2,3-]pyrimidin-7-one]: the half-maximal inhibitory concentration (IC50) lay within 1 to 10 µM. Consider `C=Cc1c(C#N)c(=O)n(-c2ccccc2)c2nc(Nc3ccccc3OC)ncc12` [Example 159, 5-ethenyl-2-[(2-methoxyphenyl)amino]-7-oxo-8-phenylpyrido[2,3-d]pyrimidine-6-carbonitrile], for which the half-inhibitory concentration (IC50) lay within 1 to 10 µM. For the molecule `C#Cc1c(C(=O)NC)c(=O)n(-c2ccccc2)c2nc(Nc3ccccc3OC)ncc12` [Example 141, 5-ethynyl-2-[(2-methoxyphenyl)amino]-N-methyl-7-oxo-8-phenylpyrido[2,3-d]pyrimidine-6-carboxamide], the 50% inhibitory concentration (IC50) was above 10 µM. In turn, `C#Cc1cc(=O)n(C2CCCC2)c2nc(Nc3ccccc3OC)ncc12` [Example 74, 8-Cyclopentyl-5-ethynyl-2-((2-methoxyphenyl)amino)pyrido[2,3-d]pyrimidin-7(8H)-one] yielded an IC50 above 10 µM. The result for `C#Cc1cc(=O)n(-c2cccc(NS(=O)(=O)C3CC3)c2)c2nc(Nc3ccccc3OC)ncc12` [Example 58, N-(3-(5-Ethynyl-2-((2-methoxyphenyl)amino)-7-oxopyrido[2,3-d]pyrimidin-8(7H)-yl)phenyl)cyclopropanesulfonamide] reads above 10 µM; that for `C#Cc1cc(=O)n(-c2cccc(NS(C)(=O)=O)c2)c2nc(Nc3ccccc3OC)ncc12` [Example 57, N-(3-(5-Ethynyl-2-((2-methoxyphenyl)amino)-7-oxopyrido[2,3-d]pyrimidin-8(7H)-yl)phenyl)methanesulfonamide], above 10 µM.

`C=Cc1c(-c2c(Cl)cccc2Cl)c(=O)n(C)c2nc(Nc3cccc(CO)c3)ncc12` [Example 164, 6-(2,6-dichlorophenyl)-5-ethenyl-2-{[3-(hydroxymethyl)phenyl]amino}-8-methylpyrido[2,3-d]pyrimidin-7-one] came in with a half-inhibitory concentration (IC50) above 10 µM.

On to `C#Cc1c(-c2ccccc2Cl)c(=O)n(C)c2nc(Nc3ccccc3)ncc12` [Example 124, 6-(2-chlorophenyl)-5-ethynyl-8-methyl-2-(phenylamino)pyrido[2,3-d]pyrimidin-7-one], for which the 50% inhibitory concentration (IC50) was above 10 µM. The molecule `C=Cc1c(-c2ccccc2Cl)c(=O)n(C)c2nc(NCCCCN3CCN(C)CC3)ncc12` [Example 174, 6-(2-chlorophenyl)-8-methyl-2-((4-(4-methylpiperazin-1-yl)butyl)amino)-5-vinylpyrido[2,3-d]pyrimidin-7(8H)-one] showed a concentration for half-maximal inhibition (IC50) above 10 µM. `C#Cc1cc(=O)n(-c2cccc(NC(=O)C=C)c2)c2nc(Nc3ccccc3OC)ncc12` [Example 85, N-(3-(5-Ethynyl-2-((2-methoxyphenyl)amino)-7-oxopyrido[2,3-d]pyrimidin-8(7H)-yl)phenyl)acrylamide]: the IC50 lay in the range of 1 to 10 µM. For the molecule `C=Cc1cc(=O)n(-c2ccccc2)c2nc(Nc3ccccc3OC)ncc12` [Example 152, 5-ethenyl-2-[(2-methoxyphenyl)amino]-8-phenylpyrido[2,3-d]pyrimidin-7-one], the IC50 is above 10 µM.

Take `C=Cc1c(-c2c(Cl)cccc2Cl)c(=O)n(C)c2nc(Nc3ccc(N(C)CCN(C)C)cc3)ncc12` [Example 167, 6-(2,6-dichlorophenyl)-2-[(4-{[2-(dimethylamino)ethyl](methyl)amino}phenyl)amino]-5-ethenyl-8-methylpyrido[2,3-d]pyrimidin-7-one]: the IC50 is above 10 µM.

The molecule `C#Cc1cc(=O)n(-c2ccccc2)c2nc(Nc3ccc(OCCN(C)C)cc3)ncc12` [Example 13, 2-({4-[2-(Dimethylamino)ethoxy]phenyl}amino)-5-ethynyl-8-phenylpyrido[2,3-d]pyrimidin-7-one] displayed a concentration for half-maximal inhibition (IC50) below 1 µM. The result for `C#Cc1cc(=O)n(-c2ccc(OC)cc2OC)c2nc(Nc3ccccc3OC)ncc12` [Example 75, 8-(2,4-Dimethoxyphenyl)-5-ethynyl-2-[(2-methoxyphenyl)amino]pyrido[2,3-d]pyrimidin-7-one] reads above 10 µM; that for `C=Cc1c(Cc2ccccc2)c(=O)n(C)c2nc(Nc3ccc(N(C)CCN(C)C)cc3)ncc12` [Example 166, 6-benzyl-2-[(4-{[2-(dimethylamino)ethyl](methyl)amino}phenyl)amino]-5-ethenyl-8-methylpyrido[2,3-d]pyrimidin-7-one], above 10 µM.

As for `C#Cc1c(N(C)C)c(=O)n(-c2ccccc2)c2nc(Nc3ccccc3OC)ncc12` [Example 147, 6-(dimethylamino)-5-ethynyl-2-[(2-methoxyphenyl)amino]-8-phenylpyrido[2,3-d]pyrimidin-7-one], the IC50 is above 10 µM. Next, `C#Cc1c(-c2ccccc2OC)c(=O)n(C)c2nc(Nc3ccc(N(C)CCN(C)C)cc3)ncc12` [Example 138, 2-[(4-{[2-(dimethylamino)ethyl](methyl)amino}phenyl)amino]-5-ethynyl-6-(2-methoxyphenyl)-8-methylpyrido [2,3-d]pyrimidin-7-one]: 1 to 10 µM; `C=Cc1cc(=O)n(-c2ccccc2OC)c2nc(Nc3ccccc3OC)ncc12` [Example 153, 8-(2-Methoxyphenyl)-2-((2-methoxyphenyl)amino)-5-vinylpyrido[2,3-d]pyrimidin-7(8H)-one]: above 10 µM; `C#Cc1cc(=O)n(-c2cccc(NC(C)=O)c2)c2nc(Nc3ccccc3OC)ncc12` [Example 56, N-(3-(5-Ethynyl-2-((2-methoxyphenyl)amino)-7-oxopyrido[2,3-d]pyrimidin-8(7H)-yl)phenyl)acetamide]: above 10 µM. `C=Cc1cc(=O)n(-c2ccc(OC)cc2OC)c2nc(Nc3ccccc3OC)ncc12` [Example 154, 8-(2,4-dimethoxyphenyl)-5-ethenyl-2-[(2-methoxyphenyl)amino]pyrido[2,3-d]pyrimidin-7-one] displayed an IC50 above 10 µM. The result for `C=Cc1c(-c2ccccc2Cl)c(=O)n(C)c2nc(N)ncc12` [Example 173, 2-amino-6-(2-chlorophenyl)-5-ethenyl-8-methylpyrido[2,3-d]pyrimidin-7-one] reads above 10 µM; that for `C=Cc1c(C#N)c(=O)n(-c2ccc(OC)cc2OC)c2nc(Nc3ccccc3OC)ncc12` [Example 160, 8-(2,4-dimethoxyphenyl)-2-((2-methoxyphenyl)amino)-7-oxo-5-vinyl-7,8-dihydropyrido[2,3-d]pyrimidine-6-carbonitrile], 1 to 10 µM.

As to `C#Cc1c(-c2ccccc2Cl)c(=O)n(C)c2nc(NCCCCN3CCN(C)CC3)ncc12` [Example 130, 6-(2-chlorophenyl)-5-ethynyl-8-methyl-2-{[4-(4-methylpiperazin-1-yl)butyl]amino}pyrido[2,3-d]pyrimidin-7-one], the IC50 is above 10 µM. The result for `C#Cc1c(C(=O)N(C)C)c(=O)n(-c2ccccc2)c2nc(Nc3ccccc3OC)ncc12` [Example 146, 5-ethynyl-2-[(2-methoxyphenyl)amino]-N,N-dimethyl-7-oxo-8-phenylpyrido[2,3-d]pyrimidine-6-carboxamide] reads above 10 µM; that for `C=Cc1c(-c2ccccc2)c(=O)n(C)c2nc(Nc3ccccc3OC)ncc12` [Example 162, 5-ethenyl-2-[(2-methoxyphenyl)amino]-8-methyl-6-phenylpyrido[2,3-d]pyrimidin-7-one], above 10 µM; that for `C#Cc1nc(=O)n(-c2ccccc2)c2nc(Nc3ccccc3OC)ncc12` [Example 4, 4-Ethynyl-7-[(2-methoxyphenyl)amino]-1-phenylpyrimido[4,5-d][1,3]diazin-2-one], below 1 µM. The result for `C#Cc1c(Cc2ccccc2)c(=O)n(C)c2nc(Nc3ccc(N(C)CCN(C)C)cc3OC)ncc12` [Example 140, 6-benzyl-2-[(4-[[2-(dimethylamino)ethyl](methyl)amino]-2-methoxyphenyl)amino]-5-ethynyl-8-methylpyrido[2,3-d]pyrimidin-7-one] reads 1 to 10 µM. Regarding `C=Cc1c(-c2c(Cl)cccc2Cl)c(=O)n(C)c2nc(Nc3ccccc3OC)ncc12` [Example 163, 6-(2,6-dichlorophenyl)-5-ethenyl-2-[(2-methoxyphenyl)amino]-8-methylpyrido[2,3-]pyrimidin-7-one], the IC50 is above 10 µM.

`C#Cc1c(C#N)c(=O)n(-c2ccccc2)c2nc(Nc3ccccc3OC)ncc12` [Example 145, 5-ethynyl-2-[(2-methoxyphenyl)amino]-7-oxo-8-phenylpyrido[2,3-d]pyrimidine-6-carbonitrile] showed a half-maximal inhibitory concentration (IC50) above 10 µM.

On to `C=Cc1c(-c2ccccc2Cl)c(=O)n(C)c2nc(Nc3ccc(N(C)CCN(C)C)cc3)ncc12` [Example 165, 6-(2-chlorophenyl)-2-[(4-{[2-(dimethylamino)ethyl](methyl)amino}phenyl)amino]-5-ethenyl-8-methylpyrido[2,3-d]pyrimidin-7-one], for which the 50% inhibitory concentration (IC50) is above 10 µM. Next, `C#Cc1cc(=O)n(C)c2nc(Nc3ccccc3OC)ncc12` [Example 48, 5-Ethynyl-2-[(2-methoxyphenyl)amino]-8-methylpyrido[2,3-d]pyrimidin-7-one]: above 10 µM; `C#Cc1cc(=O)n(-c2ccc(OC)cc2)c2nc(Nc3ccccc3OC)ncc12` [Example 84, 5-ethynyl-8-(4-methoxyphenyl)-2-[(2-methoxyphenyl)amino]pyrido[2,3-d]pyrimidin-7-one]: above 10 µM. The result for `C=CC(=O)Nc1cc(=O)n(-c2ccccc2)c2nc(Nc3ccccc3OC)ncc12` [Example 2, N-(2-((2-Methoxyphenyl)amino)-7-oxo-8-phenyl-7,8-dihydropyrido[2,3-d]pyrimidin-5-yl)acrylamide] reads above 10 µM; that for `C#Cc1cc(=O)n(-c2ccccc2)c2nc(Nc3ccccc3)ncc12` [Example 5], 1 to 10 µM.
